From US20250122221A1 (NANJING ZAIMING PHARMACEUTICAL CO., LTD., priority 2022, published 2025)
pIC50: −log10 of the molar value. Read-outs that look alike come from different tables or passages of the source.

Columns and labels:
[1] = system: DLD-1 BRCA2 (−/−) cells; assay: Inhibition of tumour cell proliferation, 7 days, CTG; type: cell-based; conditions: Homo sapiens, read-out: DLD-1 BRCA2 (−/−) IC50
Procedure: (§1) Brief introduction to the experimental principle: The compounds were co-incubated with tumour cells for 7 days, and then a CTG kit from Promega Inc was used to quantify ATP in viable cells, thus reflecting the effect of the compounds on tumour cell proliferation.
(§2) Experimental method: DLD-1 parental cells or DLD-1 BRCA2 (−/−) cells were diluted with RPMI 1640 medium containing 10% FBS, and then added to a 96-well plate (90 μL/well), with the number of cells being 600 cells/well or 1200 cells/well, respectively, and cultured overnight in a 37° C., 5% CO2 incubator. The compounds to be tested were diluted to different concentrations in dimethyl sulfoxide (DMSO), and then added to a 96-well plate. The final concentration of the compounds in the reaction system started from 25 μM, and was subjected to 4-fold gradient dilution. The concentration range of the compounds was from 25 μM to 0.0004 μM, and the final concentration of DMSO was 0.25% v/v. After 7 days of incubation, 50 μL/well CTG was added, and the mixture was incubated at room temperature for 10 minutes. Subsequently, the luminescence (Lum) signal value was read with an Envision microplate reader, and the inhibition rate and half inhibitory concentration (IC50) were calculated.
(§3) The inhibition rate was calculated, and XLfit software was used to perform fitting to obtain IC50 of the compounds.
(§4) In the experiment, a blank well and a DMSO well were set up, respectively.
(§5) Inhibition rate=100*(Lummax−Lumcompound)/(Lummax−Lummin)%, • where Lummax refers to the luminescence signal value of the well containing cells and 0.25% v/v DMSO; Lumcompound refers to the luminescence signal value of the well containing the compound and cells; and Lummin refers to the luminescence signal value of the well containing the medium and 0.25% v/v DMSO.

[2] = system: DLD-1 parental cells; assay: as above; type: cell-based; conditions: Homo sapiens, read-out: DLD-1 parental cell IC50
Procedure: as §1, §2, §3, §4, §5

[3] = biological target: N-terminal active peptide segment (MI-N899) of POLQ with ATPase activity (Homo sapiens (Human), UniProt O75417); assay: POLQ enzyme activity inhibition experiment (ATPase, NADH-coupled, OD 340 nm); type: biochemical; conditions: 100 nM POLQ (N), 100 μM ATP, 300 nM dT50
[4] = 168 h, DLD-1 BRCA2 (−/−) cells, 7 days of incubation, CTG
[5] = 168 h, DLD-1 parental cells, 7 days of incubation, CTG

N-terminal active peptide segment (MI-N899) of POLQ with ATPase activity, sequence (O75417 1-899 limits assumed): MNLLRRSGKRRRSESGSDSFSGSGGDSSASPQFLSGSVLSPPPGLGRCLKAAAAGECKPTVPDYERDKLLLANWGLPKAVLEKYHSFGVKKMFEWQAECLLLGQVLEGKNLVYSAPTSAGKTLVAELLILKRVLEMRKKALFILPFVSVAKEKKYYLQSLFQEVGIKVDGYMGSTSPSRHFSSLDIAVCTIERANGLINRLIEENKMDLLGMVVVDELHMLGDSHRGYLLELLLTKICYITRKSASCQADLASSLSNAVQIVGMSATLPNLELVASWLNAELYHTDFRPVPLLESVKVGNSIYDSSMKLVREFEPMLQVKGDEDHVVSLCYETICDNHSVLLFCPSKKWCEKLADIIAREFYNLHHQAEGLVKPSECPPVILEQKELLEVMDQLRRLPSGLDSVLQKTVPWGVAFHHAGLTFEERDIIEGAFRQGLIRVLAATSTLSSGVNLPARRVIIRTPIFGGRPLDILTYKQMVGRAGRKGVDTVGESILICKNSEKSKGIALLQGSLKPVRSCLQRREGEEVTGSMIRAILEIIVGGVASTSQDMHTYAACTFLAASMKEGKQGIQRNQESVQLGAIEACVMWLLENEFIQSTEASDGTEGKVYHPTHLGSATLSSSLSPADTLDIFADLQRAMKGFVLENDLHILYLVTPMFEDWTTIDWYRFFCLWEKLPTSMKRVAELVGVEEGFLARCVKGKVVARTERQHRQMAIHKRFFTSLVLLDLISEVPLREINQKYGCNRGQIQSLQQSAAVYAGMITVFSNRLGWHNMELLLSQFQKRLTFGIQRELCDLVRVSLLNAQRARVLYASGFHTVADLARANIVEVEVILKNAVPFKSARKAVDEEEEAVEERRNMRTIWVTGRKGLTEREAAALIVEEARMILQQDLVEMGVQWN

Row | Structure (SMILES) | pIC50 [1, 4] | pIC50 [2, 5] | pIC50 [3] | pIC50 ([1]; DLD-1, 168 h) | pIC50 ([2]; DLD-1, 168 h)
1 | COc1cnc(C(F)(F)F)cc1-c1cc(C)ncc1C(=O)Nc1nc2ncc(-c3ccc(C#N)cc3)nc2s1 [Compound 73, N-(6-(4-cyanophenyl)thiazolo[4,5-b]pyrazin-2-yl)-5′-methoxy-6-methyl-2′-(trifluoromethyl)-[4,4′-bipyridine]-3-carboxamide] | > 6.70 | < 5.00 | > 7.00 |  | 
2 | Cc1cc(-c2cc(C)ncc2C(=O)Nc2nc3ncc(-c4ccc(C#N)cc4)nc3s2)c(OC(F)F)cn1 [Compound 74, N-(6-(4-cyanophenyl)thiazolo[4,5-b]pyrazin-2-yl)-5′-(difluoromethoxy)-2′,6-dimethyl-[4,4′-bipyridine]-3-carboxamide] | > 6.70 | < 5.00 | > 7.00 |  | 
3 | COc1ccc(-c2cnc3nc(NC(=O)c4cnc(C)cc4-c4cc(C)ncc4OC)sc3n2)nc1 [Compound 75, 5′-methoxy-N-[6-(5-methoxypyridin-2-yl)thiazolo[4,5-b]pyrazin-2-yl]-2′,6-dimethyl-[4,4′-bipyridine]-3-carboxamide] |  |  | > 7.00 | > 6.70 | < 5.00
4 | COc1ccc(Cl)cc1-c1cc(C)ncc1C(=O)Nc1nc2ncc(-c3ccc(C4CC4)cn3)nc2s1 [Compound 77, 4-(5-chloro-2-methoxyphenyl)-N-[6-(5-cyclopropylpyridin-2-yl)thiazolo[4,5-b]pyrazin-2-yl]-6-methylpyridine-3-carboxamide] | > 6.70 | < 5.00 | > 7.00 |  | 
5 | COc1ccc(Cl)cc1-c1cc(C)ncc1C(=O)Nc1nc2ncc(-c3ccc(C(C)(C)O)cn3)nc2s1 [Compound 78, 4-(5-chloro-2-methoxyphenyl)-N-(6-(5-(2-hydroxyprop-2-yl)pyridin-2-yl)thiazolo[4,5-b]pyrazin-2-yl)-6-methylpyridine-3-carboxamide] | > 6.70 | < 5.00 | > 7.00 |  | 
6 | COc1ccc(Cl)cc1-c1cc(C)ncc1C(=O)Nc1nc2ncc(-c3ccc(C4CC4)cc3)nc2s1 [Compound 79, 4-(5-chloro-2-methoxyphenyl)-N-(6-(4-cyclopropylphenyl)thiazolo[4,5-b]pyrazin-2-yl)-6-methylpyridine-3-carboxamide] | > 6.70 | < 5.00 | > 7.00 |  | 
7 | COc1ccc(Cl)cc1-c1cc(C)ncc1C(=O)Nc1nc2ncc(-c3ccc(OC(F)F)cc3)nc2s1 [Compound 80, 4-(5-chloro-2-methoxyphenyl)-N-(6-(4-(difluoromethoxy)phenyl)thiazolo[4,5-b]pyrazin-2-yl)-6-methylpyridine-3-carboxamide] | > 6.70 | < 5.00 | > 7.00 |  | 
8 | COc1cnc(C)cc1-c1cc(C)ncc1C(=O)Nc1nc2ncc(-c3ccc(OC(F)(F)F)cc3)nc2s1 [Compound 81, 5′-methoxy-2′,6-dimethyl-N-(6-(4-(trifluoromethoxy)phenyl)thiazolo[4,5-b]pyrazin-2-yl)-[4,4′-bipyridine]-3-carboxamide] | > 6.70 | < 5.00 | > 7.00 |  | 
9 | COc1cnc(C)cc1-c1cc(C)ncc1C(=O)Nc1nc2ncc(-c3ccc(C4CC4)cc3)nc2s1 [Compound 82, N-(6-(4-cyclopropylphenyl)thiazolo[4,5-b]pyrazin-2-yl)-5′-methoxy-2′,6-dimethyl-[4,4′-bipyridine]-3-carboxamide] | > 6.70 | < 5.00 | > 7.00 |  | 
10 | COc1cnc(C2CC2)cc1-c1cc(C)ncc1C(=O)Nc1nc2ncc(-c3ccc(C4CC4)cc3)nc2s1 [Compound 83, 2′-cyclopropyl-N-(6-(4-cyclopropylphenyl)thiazolo[4,5-b]pyrazin-2-yl)-5′-methoxy-6-methyl-[4,4′-bipyridine]-3-carboxamide] | > 6.70 | < 5.00 | > 7.00 |  | 
11 | COc1ccc(C2CC2)cc1-c1cc(C)ncc1C(=O)Nc1nc2ncc(-c3ccc(C#N)cc3)nc2s1 [Compound 84, N-(6-(4-cyanophenyl)thiazolo[4,5-b]pyrazin-2-yl)-4-(5-cyclopropyl-2-methoxyphenyl)-6-methylpyridine-3-carboxamide] | > 6.70 | < 5.00 | > 7.00 |  | 
12 | COc1ccc(C2CC2)cc1-c1cc(C)ncc1C(=O)Nc1nc2ncc(-c3ccc(OC(F)F)cc3)nc2s1 [Compound 85, 4-(5-cyclopropyl-2-methoxyphenyl)-N-(6-(4-(difluoromethoxy)phenyl)thiazolo[4,5-b]pyrazin-2-yl)-6-methylpyridine-3-carboxamide] | > 6.70 | < 5.00 | > 7.00 |  | 
13 | COc1ccc(C(F)(F)F)cc1-c1cc(C)ncc1C(=O)Nc1nc2ncc(-c3ccc(C#N)cc3)nc2s1 [Compound 86, N-(6-(4-cyanophenyl)thiazolo[4,5-b]pyrazin-2-yl)-4-(2-methoxy-5-(trifluoromethyl)phenyl)-6-methylpyridine-3-carboxamide] | > 6.70 | < 5.00 | > 7.00 |  | 
14 | Cc1cc(-c2cc(Cl)ccc2Cl)c(C(=O)Nc2nc3ncc(-c4ccc(C#N)cc4)nc3s2)cn1 [Compound 87, N-(6-(4-cyanophenyl)thiazolo[4,5-b]pyrazin-2-yl)-4-(2,5-dichlorophenyl)-6-methylpyridine-3-carboxamide] | > 6.70 | < 5.00 | > 7.00 |  | 
15 | COc1cnc(C)cc1-c1cc(C)ccc1C(=O)Nc1nc2ncc(-c3ccc(C#N)cc3)nc2s1 [Compound 92, N-(6-(4-cyanophenyl)thiazolo[4,5-b]pyrazin-2-yl)-2-(5-methoxy-2-methylpyridine-4-yl)-4-methylbenzamide] | > 6.70 | < 5.00 | > 7.00 |  | 
16 | COc1ccc(Cl)cc1-c1cc(C)ccc1C(=O)Nc1nc2ncc(-c3ccc(C#N)cc3)nc2s1 [Compound 93, 5′-chloro-N-(6-(4-cyanophenyl)thiazolo[4,5-b]pyrazin-2-yl)-2′-methoxy-5-methyl-[1,1′-biphenyl]-2-carboxamide] | > 6.70 | < 5.00 | > 7.00 |  | 
17 | Cc1cc(-c2cc(Cl)ccc2OC2CC2)c(C(=O)Nc2nc3ncc(-c4ccc(C#N)cc4)nc3s2)cn1 [Compound 94, 4-(5-chloro-2-cyclopropoxyphenyl)-N-(6-(4-cyanophenyl)thiazolo[4,5-b]pyrazin-2-yl)-6-methylpyridine-3-carboxamide] |  |  | > 7.00 | > 6.70 | < 5.00
